Entries after “also recorded” stand apart in the source; their conditions may differ. Values belong to the molecule of their own block, whether it stands above or below them.
Columns and labels:
PIM1 kinase = biological target: PIM1 kinase; design: method as in PMID 23025350; details: cited from earlier work
PARP-1 = biological target: PARP-1; design: method as in PMID 21948594, PMID 21336281; details: ChEMBL; cited from earlier work
S6K1 kinase = biological target: S6K1 kinase; design: method as in PMID 24072592; details: cited from earlier work
human CDC2/CDK1 = biological target: T1, human CDC2/CDK1 (Homo sapiens, UniProt P06493); assay: Human CDK1 kinase in vitro inhibition assay (Cerep, LANCE); format: biochemical
T1 construct: purchased Cerep (CRO that ran the assay) 2875 (781-cdc2); host or cells: insect cells
Source text: All details for the CDC2/CDK1 in vitro assay can be consulted in the Cerep
Catalogue available online under references 2875 (781-cdc2):
http://www.cerep.fr/cerep/users/pages/catalog/Affiche_CondExp_Test.asp?test=2875
CDC2/CDK1 quantified by measuring the phosphorylation of
the substrate Ulight-[sequence]-amide (MBP) using a human
recombinant enzyme expressed in insect cells and the LANCE® detection method.
The test compound, reference compound or water (control) are mixed with the enzyme (2.28 ng) in a buffer containing 40 mM Hepes/Tris(pH 7.4), 0.8 mM EGTA/Tris, 8 mM MgCl2, 1.6 mM DTT and 0.008% Tween 20. Thereafter, the reaction is initiated by adding 100 nM of the
substrate Ulight-[sequence]-amide (MBP) and 10 µM ATP, and the
mixture is incubated for 15 min at room temperature. […] After 60 more min, the fluorescence transfer is
The IC50 values (concentration causing a half-maximal inhibition of control specific activity) and Hill coefficients (nH) were determined by non-linear regression analysis of the inhibition curves generated with mean replicate values using Hill equation curve fitting (Y = D + [(A – D)/(1 + (C/C50)nH)], where Y = specific activity, D = minimum specific activity, A = maximum specific activity, C = compound concentration, C50 = IC50, and nH = slope factor).

human DYRK1A kinase = biological target: T2, human DYRK1A kinase (Homo sapiens, UniProt Q13627); assay: Human DYRK1A kinase in vitro inhibition assay (Cerep, LANCE); format: biochemical
T2 construct: purchased Cerep (CRO that ran the assay) 2781 (781-dyrk1a)
Description: Evaluation of the effects of compounds on the activity of the human DYRK1a
[sequence]-amide (MBP) using a human recombinant enzyme and the
mixture is incubated for 30 min at room temperature. For control basal measurements,

STAT3 phosphorilation = tested on: STAT3 phosphorilation; design: method as in PMID 22678161; details: at 5 µM; cited from earlier work
16 protein kinases = assay: Focused in vitro kinase screening across the panel of 16 protein kinases; format: biochemical, human; details: panel of 16 kinases
Source text: From these kinases, we selected the 11 that were available for screening at Cerep (www.cerep.fr). The selection included members of three different kinase groups distantly related by sequence (all having less than 20% sequence identity with PIM1), namely, CAMK (PIM2, STK17A), CMGC (DYRK1A, CDK9, HIPK2, CK2, and CDC7) and AGC (AKT3, PRKCG, PRKCI, and PKA). To this list, we added also two kinases belonging to the TK group that have been identified as biomarkers of PARP drug sensitivity and shared ligands with PIM1, namely, ABL and ALK. […] In the end, a total of 16 protein kinases were selected for a focused in vitro screening of PARP inhibitors.
(§1) Rucaparib, veliparib and olaparib were purchased from Selleckchem. Kinase in vitro assays were perfomed at Cerep (www.cerep.fr) by measuring the phosphorylation of appropriate peptide substrates by human recombinant enzymes and using FRET as a detection method (a detailed description of each kinase assay is available in online supplementary data).

[1] = 50 mg single daily dose; cited from earlier work
human PIM1 kinase = biological target: T3, human PIM1 kinase (Homo sapiens, UniProt P11309); assay: Human Pim1 kinase in vitro inhibition assay (Cerep, LANCE/FRET); format: biochemical; details: human recombinant enzyme, 30 µM ATP
T3 construct: purchased Cerep (CRO that ran the assay) 2919 (745-P1); host or cells: insect cells
Description: Human Pim1 and Pim2 kinase in vitro inhibition assays
Evaluation of the effects of compounds on the activity of the human Pim1 and Pim2 kinases were quantified by measuring the phosphorylation of the substrate Ulight-
CREBtide ([sequence]) using either Pim1 or Pim2 human recombinant enzymes expressed in insect cells and the LANCE® detection method 18,19.
The test compound, reference compound or water (control) are mixed with either Pim1 (4.08 ng) or Pim2 (6.36 ng) enzymes in a buffer containing 40 mM Hepes/Tris (pH 7.4), 0.8 mM EGTA/Tris, 8 mM MgCl2, 1.6 mM DTT and 0.008% Tween 20.
Thereafter, the reaction is initiated by adding 25 nM of the substrate Ulight-CREBtide
([sequence]) and ATP (30 µM for Pim1 and 3 µM for Pim2), and the mixture is incubated for 60 min at room temperature. […] After 60 more min, the fluorescence transfer is measured at λex=337 nm, λem=620 nm and λem=665 nm using a microplate reader (Envision, Perkin Elmer).

human CDK9 kinase = biological target: T4, human CDK9 kinase (Homo sapiens, UniProt P50750); assay: Human CDK9 kinase in vitro inhibition assay (Cerep, LANCE); format: biochemical; details: human recombinant enzyme, 10 µM ATP
T4 construct: purchased Cerep (CRO that ran the assay) 2912 (781-cdk9); host or cells: Sf9 cells
Source text: as §1
Human CDK9 kinase in vitro inhibition assay
All details for the CDK9 in vitro assay can be consulted in the Cerep Catalogue available online under references 2912 (781-cdk9): http://www.cerep.fr/cerep/users/pages/catalog/Affiche_CondExp_Test.asp?test=2912 Evaluation of the effects of compounds on the activity of the human CDK9 quantified by measuring the phosphorylation of the substrate Ulight- […]
mixture is incubated for 90 min at room temperature. […] After 60 more min, the fluorescence transfer is measured at λex=337 nm, λem=620 nm and λem=665 nm using a microplate reader (Envision, Perkin Elmer). The enzyme activity is determined by dividing the signal measured at λem=665 nm by that measured at λem=620 nm (ratio). The results are expressed as a percent inhibition of the control enzyme activity. The standard inhibitory reference compound is staurosporine, which is tested in each experiment at several concentrations to obtain an inhibition curve from which its IC50 value is calculated. […]

T1 sequence (P06493 whole entry): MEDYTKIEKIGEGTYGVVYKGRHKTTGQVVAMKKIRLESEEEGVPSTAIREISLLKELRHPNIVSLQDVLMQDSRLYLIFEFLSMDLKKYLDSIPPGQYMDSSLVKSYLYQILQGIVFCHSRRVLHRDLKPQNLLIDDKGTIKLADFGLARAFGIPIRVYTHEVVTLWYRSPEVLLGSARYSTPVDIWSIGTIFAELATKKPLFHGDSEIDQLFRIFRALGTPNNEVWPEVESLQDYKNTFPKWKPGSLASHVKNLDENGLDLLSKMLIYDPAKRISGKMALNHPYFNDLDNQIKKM
T1 sequence (P14635 whole entry partner): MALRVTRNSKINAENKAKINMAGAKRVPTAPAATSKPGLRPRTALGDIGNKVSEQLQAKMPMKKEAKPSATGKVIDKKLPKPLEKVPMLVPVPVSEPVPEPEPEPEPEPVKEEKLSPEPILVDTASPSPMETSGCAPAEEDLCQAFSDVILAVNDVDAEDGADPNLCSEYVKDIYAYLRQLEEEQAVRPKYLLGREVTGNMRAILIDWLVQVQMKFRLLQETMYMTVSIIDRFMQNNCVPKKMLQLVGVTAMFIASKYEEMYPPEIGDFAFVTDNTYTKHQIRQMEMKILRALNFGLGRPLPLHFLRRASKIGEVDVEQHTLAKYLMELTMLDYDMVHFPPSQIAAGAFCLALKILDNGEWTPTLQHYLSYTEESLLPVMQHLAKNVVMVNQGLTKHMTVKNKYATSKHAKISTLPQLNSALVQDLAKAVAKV
T3 sequence (P11309 whole entry): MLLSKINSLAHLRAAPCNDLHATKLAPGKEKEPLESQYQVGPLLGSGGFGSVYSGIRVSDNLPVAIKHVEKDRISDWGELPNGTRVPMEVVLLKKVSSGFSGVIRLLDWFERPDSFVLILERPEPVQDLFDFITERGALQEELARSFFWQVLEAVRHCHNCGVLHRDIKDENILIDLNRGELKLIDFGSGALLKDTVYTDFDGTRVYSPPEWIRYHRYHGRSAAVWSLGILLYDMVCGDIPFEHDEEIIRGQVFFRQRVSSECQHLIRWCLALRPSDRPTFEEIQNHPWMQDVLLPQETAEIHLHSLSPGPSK
T4 sequence (P50750 whole entry): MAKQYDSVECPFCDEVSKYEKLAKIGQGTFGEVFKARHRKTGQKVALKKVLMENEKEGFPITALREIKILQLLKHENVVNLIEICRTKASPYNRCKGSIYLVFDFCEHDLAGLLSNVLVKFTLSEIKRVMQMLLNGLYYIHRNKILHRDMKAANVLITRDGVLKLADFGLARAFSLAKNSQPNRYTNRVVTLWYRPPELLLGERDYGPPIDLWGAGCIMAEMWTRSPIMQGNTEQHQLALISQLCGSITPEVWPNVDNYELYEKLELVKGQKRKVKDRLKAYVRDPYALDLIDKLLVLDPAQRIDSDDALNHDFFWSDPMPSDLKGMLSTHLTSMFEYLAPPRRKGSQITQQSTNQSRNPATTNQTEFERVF
T4 sequence (O60563 whole entry partner): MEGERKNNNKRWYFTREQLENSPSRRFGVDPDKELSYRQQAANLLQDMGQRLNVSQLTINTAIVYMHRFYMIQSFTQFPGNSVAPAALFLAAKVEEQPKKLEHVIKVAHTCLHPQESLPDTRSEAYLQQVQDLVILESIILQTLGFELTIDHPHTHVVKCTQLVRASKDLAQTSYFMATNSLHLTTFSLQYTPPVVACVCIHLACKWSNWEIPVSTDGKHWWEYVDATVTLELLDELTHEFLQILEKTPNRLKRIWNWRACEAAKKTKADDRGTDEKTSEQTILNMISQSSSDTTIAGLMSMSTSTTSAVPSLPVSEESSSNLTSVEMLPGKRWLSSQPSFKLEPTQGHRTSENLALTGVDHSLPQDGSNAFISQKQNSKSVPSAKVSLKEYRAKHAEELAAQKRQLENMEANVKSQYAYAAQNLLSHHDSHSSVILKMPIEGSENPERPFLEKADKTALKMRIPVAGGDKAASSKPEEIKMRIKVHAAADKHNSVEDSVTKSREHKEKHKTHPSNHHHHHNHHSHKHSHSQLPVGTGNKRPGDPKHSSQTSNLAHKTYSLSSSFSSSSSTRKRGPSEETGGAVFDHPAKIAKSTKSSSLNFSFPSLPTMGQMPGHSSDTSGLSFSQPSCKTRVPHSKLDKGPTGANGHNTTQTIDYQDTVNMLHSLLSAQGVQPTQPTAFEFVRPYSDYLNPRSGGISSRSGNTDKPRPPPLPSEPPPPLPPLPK

Structure (SMILES): CN(C)CC(=O)Nc1ccc2[nH]c(=O)c3ccccc3c2c1 [PJ34]
IC50 (PIM1 kinase): 3.7 µM

Structure (SMILES): O=C1CCCN1Cc1ccc2c(c1)[nH]c(=O)c1cccn12 [CHEMBL539474]
Ki (PARP-1): 0.698 µM

Structure (SMILES): NC(=O)c1cccc2[nH]c(-c3ccc(O)cc3)nc12 [Nu1085]
IC50 (S6K1 kinase): 0.56 µM

inhibition of CDK1 (in words) (human CDC2/CDK1): not inhibited
inhibition of DYRK1A (in words) (human DYRK1A kinase): not inhibited
Structure (SMILES): O=C(c1cc(Cc2n[nH]c(=O)c3ccccc23)ccc1F)N1CCN(C(=O)C2CC2)CC1 [olaparib]
effect on STAT3 phosphorilation (STAT3 phosphorilation): do not affect the phosphorilation state of STAT3
affinity for the 16 protein kinases tested (16 protein kinases): does not inhibit any; also recorded: no relevant affinities

inhibition of CDK1 (in words) (human CDC2/CDK1): not inhibited
inhibition of DYRK1A (in words) (human DYRK1A kinase): not inhibited
IC50 (human PIM1 kinase): 17 µM
IC50 (human CDK9 kinase): 8.2 µM
Structure (SMILES): C[C@]1(c2nc3c(C(N)=O)cccc3[nH]2)CCCN1 [veliparib]
highest peak plasma concentration [1]: around 1 µM
effect on STAT3 phosphorilation (STAT3 phosphorilation): do not affect the phosphorilation state of STAT3

From article PMC4102788, “Linking off-target kinase pharmacology to the differential cellular effects observed among PARP inhibitors” (Oncotarget, 2014)
